Results from patent US20240090497A1, “SURFACTANT BLENDS FOR HYPOHALITE-BASED DISINFECTING COMPOSITIONS” (GOJO Industries, Inc., priority 2022, published 2024).

Test: Surface tension of hypohalite-based disinfecting compositions, Wilhelmy plate method
Assay type: physicochemical
Conditions: hypohalite-based disinfecting composition with this surfactant alone (0% or 100% point of the blend plot)
Method: Various combinations of surfactants were tested with respect to the surface tension of hypohalite-based disinfecting compositions comprising the surfactant blend. Specifically, exemplary blends were prepared using varying surfactants having an average tail chain length of a C10 to C14 value. The surfactant blends were tested at varying molar ratios.
Accordingly, each surfactant blend comprised a first surfactant having a first surfactant surface tension T^1 and a second surfactant having a second surfactant surface tension T^2. The respective overall surface tension T for each surfactant blend was thereafter tested, using the Wilhelmy plate method.

| Compound | individual surfactant surface tension |
| --- | --- |
| CCCCCCCCCCCCOS(=O)(=O)[O-].[Na+] [sodium lauryl sulfate] | 29.7 mN/m |
| CCCCCCCCCCCCCCOS(=O)(=O)[O-].[Na+] [sodium myristyl sulfate] | 39.8 mN/m |
| cocobetaine | 34.7 mN/m |
| lauramine oxide | 32.4 mN/m |
| undeceth-3 | 26.9 mN/m |

The remaining lines, values ahead:

| individual surfactant surface tension | Compound |
| --- | --- |
| 28.7 mN/m | CCCCCCCCCCO[C@@H]1O[C@H](CO)[C@@H](O)[C@H](O)[C@H]1O [decyl glucoside] |
| 29.7 mN/m | laureth-6 |
| 32.1 mN/m | myristamine oxide |
